Laboratory results: ChEMBL document CHEMBL1201862, “PubChem BioAssay data set” (2004)
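Each compound was tested at five concentrations against cells in 96-well plates for 48 hours. Here, GI50 denotes the concentration required for 50% inhibition of growth.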 Activity calls are given as the source filed them. Cut-off read from the data, not from the text of the source: active = GI50 up to about 1.1 µM and inactive = higher.

Experiments:
Assay in all cases: NCI tumour cell line growth inhibition, 48 h
[1] = tested on: 786-0
[2] = tested on: A498
[3] = tested on: A549
[4] = tested on: CAKI-1
[5] = tested on: CCRF-CEM
[6] = tested on: COLO 205
[7] = tested on: DLD-1
[8] = tested on: DMS-114
[9] = tested on: DMS-273
[10] = tested on: EKVX
[11] = tested on: HCC 2998
[12] = tested on: HCT-116
[13] = tested on: HCT-15
[14] = tested on: HL-60
[15] = tested on: HOP-18
[16] = tested on: HOP-62
[17] = tested on: HOP-92
[18] = tested on: IGROV-1
[19] = tested on: K562
[20] = tested on: KM-20L2
[21] = tested on: KM12
[22] = tested on: LOX IMVI
[23] = tested on: LXFL 529
[24] = tested on: M14
[25] = tested on: M19-MEL
[26] = tested on: MOLT-4
[27] = tested on: Malme-3M
[28] = tested on: NCI-H226
[29] = tested on: NCI-H23
[30] = tested on: NCI-H460
[31] = tested on: NCI-H522
[32] = tested on: OVCAR-3
[33] = tested on: OVCAR-4
[34] = tested on: OVCAR-5
[35] = tested on: OVCAR-8
[36] = tested on: RPMI-8226
[37] = tested on: RXF 393
[38] = tested on: SF-268
[39] = tested on: SF-295
[40] = tested on: SF-539
[41] = tested on: SK-MEL-2
[42] = tested on: SK-MEL-5
[43] = tested on: SK-OV-3
[44] = tested on: SN12C
[45] = tested on: SNB-19
[46] = tested on: SNB-75
[47] = tested on: SNB-78
[48] = tested on: SR
[49] = tested on: SW-620
[50] = tested on: TK-10
[51] = tested on: U-251
[52] = tested on: UACC-257
[53] = tested on: UACC-62
[54] = tested on: UO-31
[55] = tested on: XF498
[56] = tested on: ACHN
[57] = tested on: HT-29
[58] = tested on: SK-MEL-28

Compound: O=C1c2c(c(-c3ccccc3)c(-c3ccccc3)c(-c3ccccc3)c2-c2ccccc2)C(=O)N1c1cccc(Br)c1
- GI50 [1]: > 100 µM (inactive)
- GI50 [2]: > 100 µM (inactive)
- GI50 [3]: > 100 µM (inactive)
- GI50 [4]: > 100 µM (inactive)
- GI50 [5]: > 100 µM (inactive)
- GI50 [6]: > 100 µM (inactive)
- GI50 [7]: > 100 µM (inactive)
- GI50 [8]: > 100 µM (inactive)
- GI50 [9]: > 100 µM (inactive)
- GI50 [10]: > 100 µM (inactive)
- GI50 [11]: > 100 µM (inactive)
- GI50 [12]: > 100 µM (inactive)
- GI50 [13]: > 100 µM
- GI50 [14]: > 100 µM (inactive)
- GI50 [15]: > 100 µM (inactive)
- GI50 [16]: > 100 µM (inactive)
- GI50 [17]: > 100 µM (inactive)
- GI50 [18]: > 100 µM (inactive)
- GI50 [19]: > 100 µM (inactive)
- GI50 [20]: > 100 µM (inactive)
- GI50 [21]: > 100 µM (inactive)
- GI50 [22]: > 100 µM (inactive)
- GI50 [23]: > 100 µM (inactive)
- GI50 [24]: 58.3 µM (inactive)
- GI50 [25]: > 100 µM (inactive)
- GI50 [26]: > 100 µM (inactive)
- GI50 [27]: > 100 µM (inactive)
- GI50 [28]: > 100 µM (inactive)
- GI50 [29]: > 100 µM (inactive)
- GI50 [30]: > 100 µM (inactive)
- GI50 [31]: > 100 µM (inactive)
- GI50 [32]: > 100 µM (inactive)
- GI50 [33]: > 100 µM (inactive)
- GI50 [34]: > 100 µM (inactive)
- GI50 [35]: > 100 µM (inactive)
- GI50 [36]: > 100 µM (inactive)
- GI50 [37]: > 100 µM (inactive)
- GI50 [38]: > 100 µM (inactive)
- GI50 [39]: > 100 µM (inactive)
- GI50 [40]: > 100 µM (inactive)
- GI50 [41]: > 100 µM (inactive)
- GI50 [42]: > 100 µM (inactive)
- GI50 [43]: > 100 µM (inactive)
- GI50 [44]: > 100 µM (inactive)
- GI50 [45]: > 100 µM (inactive)
- GI50 [46]: > 100 µM (inactive)
- GI50 [47]: > 100 µM (inactive)
- GI50 [48]: > 100 µM (inactive)
- GI50 [49]: > 100 µM (inactive)
- GI50 [50]: > 100 µM (inactive)
- GI50 [51]: > 100 µM (inactive)
- GI50 [52]: > 100 µM (inactive)
- GI50 [53]: > 100 µM (inactive)
- GI50 [54]: > 100 µM (inactive)
- GI50 [55]: > 100 µM (inactive)

Compound: CCOC(=O)Cc1ccc2c(c1O)C(=O)c1c(ccc(CC(=O)OCC)c1O)C2=O
- GI50 [1]: > 100 µM (inactive)
- GI50 [2]: > 100 µM (inactive)
- GI50 [3]: > 100 µM (inactive)
- GI50 [56]: > 100 µM (inactive)
- GI50 [5]: 59 µM (inactive)
- GI50 [6]: > 100 µM (inactive)
- GI50 [7]: > 100 µM (inactive)
- GI50 [8]: > 100 µM (inactive)
- GI50 [9]: > 100 µM (inactive)
- GI50 [10]: > 100 µM (inactive)
- GI50 [11]: > 100 µM (inactive)
- GI50 [12]: > 100 µM (inactive)
- GI50 [14]: > 100 µM (inactive)
- GI50 [15]: 28.4 µM (inactive)
- GI50 [16]: > 100 µM (inactive)
- GI50 [17]: > 100 µM (inactive)
- GI50 [57]: > 100 µM (inactive)
- GI50 [19]: > 100 µM (inactive)
- GI50 [20]: > 100 µM (inactive)
- GI50 [21]: > 100 µM (inactive)
- GI50 [22]: 27.9 µM (inactive)
- GI50 [23]: > 100 µM (inactive)
- GI50 [24]: > 100 µM (inactive)
- GI50 [25]: > 100 µM (inactive)
- GI50 [26]: 87.9 µM (inactive)
- GI50 [27]: 30.1 µM (inactive)
- GI50 [28]: 43.5 µM (inactive)
- GI50 [29]: > 100 µM (inactive)
- GI50 [31]: > 100 µM (inactive)
- GI50 [32]: 47.8 µM (inactive)
- GI50 [34]: > 100 µM (inactive)
- GI50 [35]: > 100 µM (inactive)
- GI50 [36]: > 100 µM (inactive)
- GI50 [37]: 33 µM (inactive)
- GI50 [38]: > 100 µM (inactive)
- GI50 [39]: > 100 µM (inactive)
- GI50 [40]: > 100 µM (inactive)
- GI50 [58]: 96.2 µM (inactive)
- GI50 [41]: > 100 µM (inactive)
- GI50 [42]: 20.4 µM (inactive)
- GI50 [43]: > 100 µM (inactive)
- GI50 [44]: > 100 µM (inactive)
- GI50 [45]: > 100 µM (inactive)
- GI50 [46]: > 100 µM (inactive)
- GI50 [47]: > 100 µM (inactive)
- GI50 [48]: > 100 µM (inactive)
- GI50 [49]: > 100 µM (inactive)
- GI50 [50]: 31.9 µM (inactive)
- GI50 [51]: 83.8 µM (inactive)
- GI50 [52]: > 100 µM (inactive)
- GI50 [53]: > 100 µM (inactive)
- GI50 [54]: > 100 µM (inactive)
- GI50 [55]: > 100 µM (inactive)

Compound: N#CNc1nc(N)c(-c2ccc(Cl)cc2)c(C(=O)Nc2nccs2)n1
- GI50 [1]: > 100 µM (inactive)
- GI50 [2]: > 100 µM (inactive)
- GI50 [3]: > 100 µM (inactive)
- GI50 [56]: > 100 µM (inactive)
- GI50 [4]: > 100 µM (inactive)
- GI50 [7]: > 100 µM (inactive)
- GI50 [8]: > 100 µM (inactive)
- GI50 [9]: > 100 µM (inactive)
- GI50 [10]: > 100 µM (inactive)
- GI50 [11]: > 100 µM (inactive)
- GI50 [12]: > 100 µM (inactive)
- GI50 [13]: > 100 µM
- GI50 [14]: > 100 µM (inactive)
- GI50 [15]: > 100 µM (inactive)
- GI50 [16]: > 100 µM (inactive)
- GI50 [17]: > 100 µM (inactive)
- GI50 [57]: > 100 µM (inactive)
- GI50 [18]: > 100 µM (inactive)
- GI50 [19]: > 100 µM (inactive)
- GI50 [20]: > 100 µM (inactive)
- GI50 [21]: > 100 µM (inactive)
- GI50 [22]: > 100 µM (inactive)
- GI50 [23]: > 100 µM (inactive)
- GI50 [24]: > 100 µM (inactive)
- GI50 [25]: > 100 µM (inactive)
- GI50 [26]: > 100 µM (inactive)
- GI50 [27]: > 100 µM (inactive)
- GI50 [28]: > 100 µM (inactive)
- GI50 [29]: > 100 µM (inactive)
- GI50 [30]: > 100 µM (inactive)
- GI50 [31]: > 100 µM (inactive)
- GI50 [32]: > 100 µM (inactive)
- GI50 [33]: > 100 µM (inactive)
- GI50 [34]: > 100 µM (inactive)
- GI50 [35]: > 100 µM (inactive)
- GI50 [36]: > 100 µM (inactive)
- GI50 [37]: > 100 µM (inactive)
- GI50 [38]: > 100 µM (inactive)
- GI50 [39]: > 100 µM (inactive)
- GI50 [40]: > 100 µM (inactive)
- GI50 [58]: > 100 µM (inactive)
- GI50 [41]: > 100 µM (inactive)
- GI50 [42]: > 100 µM (inactive)
- GI50 [44]: > 100 µM (inactive)
- GI50 [45]: > 100 µM (inactive)
- GI50 [46]: > 100 µM (inactive)
- GI50 [47]: > 100 µM (inactive)
- GI50 [49]: > 100 µM (inactive)
- GI50 [50]: > 100 µM (inactive)
- GI50 [51]: > 100 µM (inactive)
- GI50 [52]: > 100 µM (inactive)
- GI50 [53]: > 100 µM (inactive)
- GI50 [54]: > 100 µM (inactive)
- GI50 [55]: > 100 µM (inactive)
